According to patent US12558428B2, “Heterobifunctional compounds and their use in treating disease” (Halda Therapeutics OpCo, Inc., priority 2024, dated 2026):

How the values were obtained:
Assay type in all cases: cell-based
[1] = test system: T-Rex 293 cells having increased expression of estrogen receptor alpha protein; experiment: Cellular growth inhibition assay, T-Rex 293 cells, (+) doxycycline; settings: T-REx-293, 72 h, Table 7-A; T-Rex 293 cells with doxycycline (increased ERα expression); 72 hours; CellTiter-Glo; read-out: (+) Dox GI50
Outline: (§1)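 ERα overexpression was switched on by 3 ng/mL doxycycline in a stably transfected T-Rex 293 clone, while uninduced cells served as the comparison line. Proliferation over 72 h of compound treatment was assessed by ATP luminescence, and GI50 values came from four-parameter curves.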

[2] = test system: MCF7 cells (ATCC #HTB-22); experiment: Cellular growth inhibition assay, MCF7 cells purchased from ATCC; settings: Homo sapiens, MCF7, 144 h, Table 8-A; MCF7 cells purchased from ATCC; six days; CellTiter-Glo; read-out: GI50
Outline: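 MCF7 cells in RPMI 1640 with 10% FBS and 0.2 U/ml insulin, seeded at 1,500 cells/well (ATCC) or 225 cells/well (ECACC). Compounds added 24 h later, then 6 days at 37° C. Viability by CellTiter-Glo 2.0 luminescence. GI50 from four-parameter fit.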

[3] = test system: T-Rex 293 cells lacking increased expression of estrogen receptor alpha protein; experiment: Cellular growth inhibition assay, T-Rex 293 cells, (−) doxycycline; settings: T-REx-293, 72 h, Table 7-A; T-Rex 293 cells without doxycycline (lacking increased ERα expression); 72 hours; CellTiter-Glo; read-out: (−) Dox GI50
Outline: as §1

SMILES	GI50 [1]	GI50 [2]	GI50 [3]
Cc1sc2c(c1C)C(c1ccc(N3CC(CC4(O)CCN(CC5CN(c6ccc([C@H]7c8ccc(O)cc8CC[C@H]7c7ccc(F)cc7)cc6)C5)CC4)C3)cc1)=N[C@@H](C)c1nnc(C)n1-2 [III-238]	50 to 500 nM	50 to 500 nM	500 to 2500 nM
Cc1sc2c(c1C)C(c1ccc(N3CC(CC4(O)CCN(CC5CN(c6ccc([C@@H]7c8ccc(O)cc8CC[C@@H]7c7ccc(F)cc7)cc6)C5)CC4)C3)cc1)=N[C@@H](C)c1nnc(C)n1-2 [III-239]	< 50 nM	< 50 nM	50 to 500 nM
Cc1sc2c(c1C)C(c1ccc(N3CC(CC4(O)CN(CC5CN(c6ccc([C@@H]7c8ccc(O)cc8CC[C@@H]7c7ccccc7)cc6)C5)C4)C3)cc1)=NC(C)c1nnc(C)n1-2 (stereo partly drawn) [III-240]	< 50 nM	< 50 nM	50 to 500 nM
Cc1sc2c(c1C)C(c1ccc(N3CC(O)(CC4CN(CC5CN(c6ccc([C@@H]7c8ccc(O)cc8CC[C@@H]7c7ccccc7)cc6)C5)C4)C3)cc1)=N[C@@H](C)c1nnc(C)n1-2 [III-241]	< 50 nM	< 50 nM	50 to 500 nM
Cc1sc2c(c1C)C(c1ccc(N3CC4(CC(CN5CCC(c6ccc([C@@H]7c8ccc(O)cc8CC[C@@H]7c7ccccc7)cc6)CC5)C4)C3)cc1)=N[C@@H](C)c1nnc(C)n1-2 [III-242]	< 50 nM	< 50 nM	500 to 2500 nM
Cc1sc2c(c1C)C(c1ccc(N3CC4(CC(CN5CCN(c6ccc([C@@H]7c8ccc(O)cc8CC[C@@H]7c7ccccc7)cc6)CC5)C4)C3)cc1)=N[C@@H](C)c1nnc(C)n1-2 [III-243]	< 50 nM	< 50 nM	500 to 2500 nM
Cc1sc2c(c1C)C(c1ccc(N3CCC(O)(CN4CCN(c5cc(F)c([C@@H]6c7ccc(O)cc7CC[C@@H]6c6ccccc6)cc5F)CC4)CC3)cc1)=N[C@@H](C)c1nnc(C)n1-2 [III-246]	< 50 nM	< 50 nM	500 to 2500 nM
Cc1sc2c(c1C)C(c1ccc(N3CCC(O)(CN4CCN(c5cc(F)c([C@H]6c7ccc(O)cc7CC[C@H]6c6ccccc6)cc5F)CC4)CC3)cc1)=N[C@@H](C)c1nnc(C)n1-2 [III-247]	< 50 nM	50 to 500 nM	50 to 500 nM
Cc1sc2c(c1C)C(c1ccc(N3CCC(O)(CN4CCN(c5ccc([C@@H]6c7ccc(O)cc7CC[C@@H]6c6ccc(F)cc6)c(F)c5)CC4)CC3)cc1)=N[C@@H](C)c1nnc(C)n1-2 [III-248]	< 50 nM	< 50 nM	500 to 2500 nM
Cc1sc2c(c1C)C(c1ccc(N3CCC(O)(CN4CCN(c5ccc([C@H]6c7ccc(O)cc7CC[C@H]6c6ccc(F)cc6)c(F)c5)CC4)CC3)cc1)=N[C@@H](C)c1nnc(C)n1-2 [III-249]	50 to 500 nM	50 to 500 nM	500 to 2500 nM
Cc1sc2c(c1C)C(c1ccc(N3CCC(O)(CN4CCN(c5ccc([C@H]6c7ccc(O)cc7CC[C@H]6c6ccc(F)cc6)cc5F)CC4)CC3)cc1)=N[C@@H](C)c1nnc(C)n1-2 [III-250, 4-((4-(2-fluoro-4-((1S,2R)-2-(4-fluorophenyl)-6-hydroxy-1,2,3,4-tetrahydronaphthalen-1-yl)phenyl)piperazin-1-yl)methyl)-1-(4-((S)-2,3,6,9-tetramethyl-6H-thieno[3,2-f][1,2,4]triazolo[4,3-a][1,4]diazepin-4-yl)phenyl)piperidin-4-ol]	50 to 500 nM	50 to 500 nM	50 to 500 nM
Cc1sc2c(c1C)C(c1ccc(N3CCC(O)(CN4CCN(c5ccc([C@@H]6c7ccc(O)cc7CC[C@@H]6c6ccc(F)cc6)cc5F)CC4)CC3)cc1)=N[C@@H](C)c1nnc(C)n1-2 [III-251, 4-((4-(2-fluoro-4-((1R,2S)-2-(4-fluorophenyl)-6-hydroxy-1,2,3,4-tetrahydronaphthalen-1-yl)phenyl)piperazin-1-yl)methyl)-1-(4-((S)-2,3,6,9-tetramethyl-6H-thieno[3,2-f][1,2,4]triazolo[4,3-a][1,4]diazepin-4-yl)phenyl)piperidin-4-ol]	< 50 nM	< 50 nM	500 to 2500 nM
Cc1sc2c(c1C)C(c1ccc(N3CC4(CCC(CN5CCC(c6ccc([C@H]7c8ccc(O)cc8CC[C@H]7c7ccc(F)cc7)cc6)CC5)CC4)C3)cc1)=N[C@@H](C)c1nnc(C)n1-2 [III-252]	50 to 500 nM	500 to 2500 nM	500 to 2500 nM
Cc1sc2c(c1C)C(c1ccc(N3CC4(CCC(CN5CCC(c6ccc([C@@H]7c8ccc(O)cc8CC[C@@H]7c7ccc(F)cc7)cc6)CC5)CC4)C3)cc1)=N[C@@H](C)c1nnc(C)n1-2 [III-253]	< 50 nM	< 50 nM	500 to 2500 nM
COc1cc([C@H]2c3ccc(O)cc3CC[C@H]2c2ccc(F)cc2)ccc1N1CCN(CC2(O)CCN(c3ccc(C4=N[C@@H](C)c5nnc(C)n5-c5sc(C)c(C)c54)cc3)CC2)CC1 [III-254]	< 50 nM	50 to 500 nM	500 to 2500 nM
COc1cc([C@@H]2c3ccc(O)cc3CC[C@@H]2c2ccc(F)cc2)ccc1N1CCN(CC2(O)CCN(c3ccc(C4=N[C@@H](C)c5nnc(C)n5-c5sc(C)c(C)c54)cc3)CC2)CC1 [III-255]	< 50 nM	50 to 500 nM	500 to 2500 nM
Cc1sc2c(c1C)C(c1ccc(N3CCC(O)(CN4CCN(c5cc(F)c([C@@H]6c7ccc(O)cc7CC[C@@H]6c6ccc(F)cc6)cc5F)CC4)CC3)cc1)=N[C@@H](C)c1nnc(C)n1-2 [III-256]	< 50 nM	< 50 nM	500 to 2500 nM
Cc1sc2c(c1C)C(c1ccc(N3CCC(O)(CN4CCN(c5cc(F)c([C@H]6c7ccc(O)cc7CC[C@H]6c6ccc(F)cc6)cc5F)CC4)CC3)cc1)=N[C@@H](C)c1nnc(C)n1-2 [III-257]	50 to 500 nM	50 to 500 nM	500 to 2500 nM
Cc1sc2c(c1C)C(c1ccc(N3CCC(O)(CN4CCN(c5ccc([C@H]6c7ccc(O)cc7CC[C@H]6c6ccc(F)cc6F)cc5)CC4)CC3)cc1)=N[C@@H](Cc1ncco1)c1nnc(C)n1-2 [III-258]	50 to 500 nM	50 to 500 nM	50 to 500 nM
Cc1sc2c(c1C)C(c1ccc(N3CCC(O)(CN4CCN(c5ccc([C@@H]6c7ccc(O)cc7CC[C@@H]6c6ccc(F)cc6F)cc5)CC4)CC3)cc1)=N[C@@H](Cc1ncco1)c1nnc(C)n1-2 [III-259]	< 50 nM	< 50 nM	500 to 2500 nM
Cc1sc2c(c1C)C(c1ccc(C3CN(C[C@H]4C[C@@H](CN5CC(c6ccc([C@@H]7c8ccc(O)cc8CC[C@@H]7c7ccccc7)cc6)C5)C4)C3)cc1)=N[C@@H](C)c1nnc(C)n1-2 [III-260]	< 50 nM	50 to 500 nM	500 to 2500 nM
Cc1sc2c(c1C)C(c1ccc(C3CN(C[C@H]4C[C@H](CN5CC(c6ccc([C@@H]7c8ccc(O)cc8CC[C@@H]7c7ccccc7)cc6)C5)C4)C3)cc1)=N[C@@H](C)c1nnc(C)n1-2 [III-261]	< 50 nM	50 to 500 nM	500 to 2500 nM
Cc1sc2c(c1C)C(c1ccc(N3CC4(CC(CN5CCN(c6ccc([C@H]7c8ccc(O)cc8CC[C@H]7c7ccc(F)cc7)cc6)CC5)C4)C3)cc1)=N[C@@H](C)c1nnc(C)n1-2 [III-262]	50 to 500 nM	50 to 500 nM	500 to 2500 nM
Cc1sc2c(c1C)C(c1ccc(N3CC4(CC(CN5CCN(c6ccc([C@@H]7c8ccc(O)cc8CC[C@@H]7c7ccc(F)cc7)cc6)CC5)C4)C3)cc1)=N[C@@H](C)c1nnc(C)n1-2 [III-263]	< 50 nM	< 50 nM	500 to 2500 nM
